The target of one test is T1, G12C K-Ras4B (1-169) (Homo sapiens, UniProt P01116, G12C).
T1 construct: G12C K-Ras4B (1-169) protein, which was a KRAS G12C mutant; His tag (N, cleaved yes); made in house; host or cells: E. coli BL21 (DE3)
The experiment in a line: Binding to KRAS G12C mutant, compound binding rate by LC-MS. To be noted: final compound concentration 2 μM, 1 μM protein, 2 hours at 25° C. The method, boiled down: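 Covalent labelling at 2 μM final compound on a mix of 1 μM each wild-type and G12C K-Ras4B (1-169) (E. coli-expressed, tag removed) in 1×TBS, 0.1 mM TCEP, 2 h at 25° C., quenched with formic acid. Intact-protein ESI Q-TOF LC-MS; binding rate from adduct vs unbound protein signal, graded A–E in 20% bands.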

A further test addresses T2, KRAS G12C mutant (Homo sapiens, UniProt P01116, G12C).
T2 construct: 50 μM G12C K-Ras4B (1-169) protein and 1 mM BODIPY® FL GDP; His tag (N, cleaved yes); made in house; host or cells: E. coli BL21 (DE3)
The experiment in a line: Inhibition of SOS1-mediated nucleotide (GDP-GTP) exchange reaction of KRAS G12C mutant, BODIPY FL GDP fluorescence. Type of test: biochemical. Particulars: preincubated 25° C. 4 hours with 25 nM KRAS G12C bound with BODIPY FL GDP; SOS1 100 nM, GppNHp 1 μM, 30 minutes. The essentials: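 KRAS G12C (1-169) loaded with BODIPY FL GDP (25 nM) was preincubated with compound (5% DMSO) for 4 h at 25 °C. Exchange then ran 30 min with SOS1 (564-1049, 100 nM) and 1 µM GppNHp. IC50 came from the 485/520 nm fluorescence change, normalized to DMSO and no-GppNHp controls.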

For the next test, the system named is NCI-H358 cells. The experiment in a line: Growth inhibition of KRAS-G12C mutant cell line NCI-H358 (CellTiter-Glo 2.0). To be noted: Homo sapiens, 72 h; NCI-H358, 3-day culture with compound. Type of test: cell-based. How it is done:
KRAS-G12C mutant human lung cancer cell line NCI-H358 cells (ATCC, Cat #: CRL-5807) were suspended in RPMI1640 medium (manufactured by Fujifilm Wako Pure Chemical Corp.) containing 10% fetal bovine serum. The cell suspension was seeded at 500 cells/well into the wells of a 384-well flat-bottom microplate and cultured at 37° C. for 1 day in an incubator containing 5% CO2. The compound of the present invention was dissolved in DMSO and diluted with DMSO such that the concentration of the test compound was 500 times the final concentration. The solution of the test compound in DMSO was diluted with the medium used for suspending the cells, and the resultant was added to each well of the cell culture plate such that the final concentration of DMSO was 0.2%, followed by culture at 37° C. for another 3 days in an incubator containing 5% CO2.
Growth inhibition rate (%)=(C−T)/(C)×100 • T: the emission intensity in a well supplemented with the test compound. • C: the emission intensity in a well not supplemented with the test compound.
A general note: ATP-based viability assays read luminescence as a measure of living cells.

For orientation: IC50 means the concentration at which inhibition is half-maximal. `C=CC(=O)N1CC(NC(=O)c2cnc(CNc3cc(C(C)(C)C)c(Cl)cc3O)n2CCN(C)C)C1` [Example 38, N-(1-Acryloylazetidin-3-yl)-2-(((5-(tert-butyl)-4-chloro-2-hydroxyphenyl)amino)methyl)-1-(2-(dimethylamino)ethyl)-1H-imidazole-5-carboxamide]: at G12C K-Ras4B (1-169), the “binding rate for G12C K-Ras4B (1-169)” value is “A (80% or more)”. The IC50 against KRAS G12C mutant is 9 nM; with NCI-H358 cells it was 708 nM.

Turning to `C=CC(=O)N1CC(NC(=O)c2c(C)nc(CNc3cc(C(C)(C)C)c(Cl)cc3O)n2C)C1` [Example 39, N-(1-Acryloylazetidin-3-yl)-2-(((5-(tert-butyl)-4-chloro-2-hydroxyphenyl)amino)methyl)-1,4-dimethyl-1H-imidazole-5-carboxamide], at G12C K-Ras4B (1-169), the “binding rate for G12C K-Ras4B (1-169)” value was “A (80% or more)”. In addition, the results for the 50% inhibitory concentration (IC50) at KRAS G12C mutant and in the test on NCI-H358 cells were 5 nM and 112 nM, respectively.

With `C=CC(=O)N1CC(NC(=O)c2c(C)nc(CNc3cc(C(C)(C)C)c(Cl)cc3O)n2Cc2ccccc2)C1` [Example 40, N-(1-Acryloylazetidin-3-yl)-1-benzyl-2-(((5-(tert-butyl)-4-chloro-2-hydroxyphenyl)amino)methyl)-4-methyl-1H-imidazole-5-carboxamide], the “binding rate for G12C K-Ras4B (1-169)” value at G12C K-Ras4B (1-169) was “A (80% or more)”. The figures for the IC50 against KRAS G12C mutant and with NCI-H358 cells were 13 nM and 535 nM, respectively.

Take `C=CC(=O)N1CC(NC(=O)c2c(C)nc(CNc3cc(C(C)(C)C)c(Cl)cc3O)n2CC)C1` [Example 41, N-(1-Acryloylazetidin-3-yl)-2-(((5-(tert-butyl)-4-chloro-2-hydroxyphenyl)amino)methyl)-1-ethyl-4-methyl-1H-imidazole-5-carboxamide]: at G12C K-Ras4B (1-169), the “binding rate for G12C K-Ras4B (1-169)” value is “A (80% or more)”. Moreover, the values for the IC50 at KRAS G12C mutant and with NCI-H358 cells were 8 nM and 281 nM, respectively.

Take `C=CC(=O)N1CC(NC(=O)c2c(C)nc(CNc3cc(C(C)(C)C)c(Cl)cc3O)n2C(C)C)C1` [Example 42, N-(1-Acryloylazetidin-3-yl)-2-(((5-(tert-butyl)-4-chloro-2-hydroxyphenyl)amino)methyl)-1-isopropyl-4-methyl-1H-imidazole-5-carboxamide]: on G12C K-Ras4B (1-169), the “binding rate for G12C K-Ras4B (1-169)” value is recorded as “A (80% or more)”. Also, the IC50 on KRAS G12C mutant was 11 nM; with NCI-H358 cells, 301 nM.

Take `C=CC(=O)N1CC(NC(=O)c2c(C)nc(CNc3cc(C(C)(C)C)c(Cl)cc3O)n2CCCC)C1` [Example 43, N-(1-Acryloylazetidin-3-yl)-1-butyl-2-(((5-(tert-butyl)-4-chloro-2-hydroxyphenyl)amino)methyl)-4-methyl-1H-imidazole-5-carboxamide]: the “binding rate for G12C K-Ras4B (1-169)” value on G12C K-Ras4B (1-169) is recorded as “A (80% or more)”. Besides, the IC50 against KRAS G12C mutant is 7 nM; with NCI-H358 cells it was 351 nM.

As to `C=CC(=O)N1CC(NC(=O)c2c(C)nc(CNc3cc(C(C)(C)C)c(Cl)cc3O)n2CCC)C1` [Example 44, N-(1-Acryloylazetidin-3-yl)-2-(((5-(tert-butyl)-4-chloro-2-hydroxyphenyl)amino)methyl)-4-methyl-1-propyl-1H-imidazole-5-carboxamide], at G12C K-Ras4B (1-169), the “binding rate for G12C K-Ras4B (1-169)” value is on record as “A (80% or more)”. Also, the IC50 against KRAS G12C mutant amounted to 9 nM; in the test with NCI-H358 cells, 511 nM.

Regarding `C=CC(=O)N1CC(NC(=O)c2c(C)nc(CNc3cc(C(C)(C)C)c(Cl)cc3O)n2C2CCCC2)C1` [Example 45, N-(1-Acryloylazetidin-3-yl)-2-(((5-(tert-butyl)-4-chloro-2-hydroxyphenyl)amino)methyl)-1-cyclopentyl-4-methyl-1H-imidazole-5-carboxamide], on G12C K-Ras4B (1-169), the “binding rate for G12C K-Ras4B (1-169)” value is on record as “A (80% or more)”. Moreover, the results for the IC50 on KRAS G12C mutant and in the test with NCI-H358 cells were 16 nM and 576 nM, respectively.

In the case of `C=CC(=O)N1CC(NC(=O)c2c(C)nc(CNc3cc(C(C)(C)C)c(Cl)cc3O)n2Cc2cccnc2)C1` [Example 46, N-(1-Acryloylazetidin-3-yl)-2-(((5-(tert-butyl)-4-chloro-2-hydroxyphenyl)amino)methyl)-4-methyl-1-(pyridin-3-ylmethyl)-1H-imidazole-5-carboxamide], the “binding rate for G12C K-Ras4B (1-169)” value on G12C K-Ras4B (1-169) is listed as “A (80% or more)”. Also, the IC50 turned out to be 5 nM at KRAS G12C mutant and 916 nM in the test with NCI-H358 cells.

In the case of `C=CC(=O)N1CC(NC(=O)c2c(C)nc(CNc3cc(C(C)(C)C)c(C)cc3O)n2C)C1` [Example 76, N-(1-Acryloylazetidin-3-yl)-2-(((5-(tert-butyl)-2-hydroxy-4-methylphenyl)amino)methyl)-1,4-dimethyl-1H-imidazole-5-carboxamide], the “binding rate for G12C K-Ras4B (1-169)” value at G12C K-Ras4B (1-169) is listed as “A (80% or more)”. For the same molecule, the IC50 against KRAS G12C mutant was 17 nM; with NCI-H358 cells, 399 nM.

Regarding `C=CC(=O)N1CC(NC(=O)c2c(C)nc(CNc3cc(C(C)(C)C)c(C)cc3O)n2C(C)C)C1` [Example 78, N-(1-Acryloylazetidin-3-yl)-2-(((5-(tert-butyl)-2-hydroxy-4-methylphenyl)amino)methyl)-1-isopropyl-4-methyl-1H-imidazole-5-carboxamide], on G12C K-Ras4B (1-169), the “binding rate for G12C K-Ras4B (1-169)” value is “A (80% or more)”. Moreover, the results for the IC50 on KRAS G12C mutant and with NCI-H358 cells were 50 nM and 993 nM, respectively.

`C=CC(=O)N1CC(NC(=O)c2c(C)nc(Cc3cc(C(C)(C)C)c(Cl)cc3O)n2C)C1` [Example 92, N-(1-Acryloylazetidin-3-yl)-2-(5-(tert-butyl)-4-chloro-2-hydroxybenzyl)-1,4-dimethyl-1H-imidazole-5-carboxamide]: at G12C K-Ras4B (1-169), the “binding rate for G12C K-Ras4B (1-169)” value was “B (60% or more and less than 80%)”. For the same molecule, the IC50 came to 55 nM at KRAS G12C mutant and 1100 nM with NCI-H358 cells.

In the case of `C=CC(=O)N1CC(NC(=O)c2c(C)nn(Cc3cc(C(C)(C)C)c(Cl)cc3O)c2C)C1` [Example 96, N-(1-Acryloylazetidin-3-yl)-1-(5-(tert-butyl)-4-chloro-2-hydroxybenzyl)-3,5-dimethyl-1H-pyrazole-4-carboxamide], the “binding rate for G12C K-Ras4B (1-169)” value at G12C K-Ras4B (1-169) is on record as “A (80% or more)”. Further, the IC50 at KRAS G12C mutant is 65 nM; in the test on NCI-H358 cells, 1360 nM.

In the case of `C=CC(=O)N1CC(NC(=O)c2cnc(Cc3cc(C(C)(C)C)c(Cl)cc3O)n2C)C1` [Example 97, N-(1-Acryloylazetidin-3-yl)-2-(5-(tert-butyl)-4-chloro-2-hydroxybenzyl)-1-methyl-1H-imidazole-5-carboxamide], the “binding rate for G12C K-Ras4B (1-169)” value at G12C K-Ras4B (1-169) is “A (80% or more)”. In addition, the half-maximal inhibitory concentration (IC50) was determined as 22 nM at KRAS G12C mutant and 683 nM in the test with NCI-H358 cells.

Values taken from patent publication US12479834B2, “Phenol compound or salt thereof” (TAIHO PHARMACEUTICAL CO., LTD., priority 2019, dated 2025).
